Patent publication US20030072828A1, “Natural therapeutic composition for the treatment of wounds and sores” (priority 2001, published 2003)

How the values were obtained:
[1] = Personal experience: general traits of components; settings: from personal experience
From the text: (§1) From personal experience we have discovered the following traits associated with the specific components of the invention: […]

[2] = Personal experience: component topically applied to scalds; assay type: in vivo
From the text: as §1

[3] = Personal experience: component topically applied to the skin of the face; assay type: in vivo
From the text: as §1

In the case of `O=C1O[C@H]([C@@H](O)CO)C(O)=C1O` [Vitamin C], the “trait of the component” value [1] is reported as “combating pain and inflammation”.
With Vitamin E the “pain and healing of the wound” value [2] was “reduced pain and improved healing of the wound”.
For Vitamin A, the “appearance of the skin” value [3] was “improved appearance of the skin”.
